This is an account of results in patent US4113855A, “Composition of matter and process” (The Upjohn Company, priority 1977, dated 1978).

The test system of series [1] is P. aeruginosa Strain No. 6431. The series can be described thus: standard agar disc plate assay using 6.35 mm paper discs. It is filed as cell-based, Pseudomonas aeruginosa. The note with it: for Zones of Inhibition: strain 6431, 0.03 ml of 1 mg/ml per 6.35 mm disc; for zone of inhibition at 1000 µg/mL: Pseudomonas aeruginosa, read-out: Zones of Inhibition.
Series [2] relates to P. aeruginosa Strain No. 6433. The description is as above. It is filed as cell-based, Pseudomonas aeruginosa. The settings on record: for Zones of Inhibition: strain 6433, 0.03 ml of 1 mg/ml per 6.35 mm disc.
The subject of series [3] is P. aeruginosa Strain No. 6429. Described as above. It is filed as cell-based, Pseudomonas aeruginosa. The note with it: for Zones of Inhibition: strain 6429, 0.03 ml of 1 mg/ml per 6.35 mm disc; for zone of inhibition at 1000 µg/mL: Pseudomonas aeruginosa, read-out: Zones of Inhibition.
Series [4] relates to P. aeruginosa Strain No. 6430. The description is as above. In kind it is cell-based, Pseudomonas aeruginosa. The note with it: for Zones of Inhibition: strain 6430, 0.03 ml of 1 mg/ml per 6.35 mm disc; for zone of inhibition at 1000 µg/mL: Pseudomonas aeruginosa, read-out: Zones of Inhibition.
The test system of series [5] is Pseudomonas aeruginosa strains obtained from Bronson Hospital. The series can be described thus: antibacterial activity against hospital strains. It is filed as cell-based. The note with it: Kalamazoo.
For series [6], the system named is Pseudomonas aeruginosa GN-315 (UC 6149). In words: antibacterial activity. In kind it is cell-based.
In series [7] the test system is P. aeruginosa Strain No. 6436. The series can be described thus: standard agar disc plate assay using 6.35 mm paper discs. It is filed as cell-based, Pseudomonas aeruginosa. The note with it: for Zones of Inhibition: strain 6436, 0.03 ml of 1 mg/ml per 6.35 mm disc; for zone of inhibition at 1000 µg/mL: Pseudomonas aeruginosa, read-out: Zones of Inhibition.
Series [8] relates to P. aeruginosa Strain No. 6434. The description is as above. The note with it: for Zones of Inhibition: strain 6434, 0.03 ml of 1 mg/ml per 6.35 mm disc; for zone of inhibition at 1000 µg/mL: Pseudomonas aeruginosa, read-out: Zones of Inhibition. In kind it is cell-based, Pseudomonas aeruginosa.
Series [9] deals with P. aeruginosa Strain No. 6435. The series is described as above. It is filed as cell-based, Pseudomonas aeruginosa. The note with it: for Zones of Inhibition: strain 6435, 0.03 ml of 1 mg/ml per 6.35 mm disc; for zone of inhibition at 1000 µg/mL: Pseudomonas aeruginosa, read-out: Zones of Inhibition.
For series [10], the system named is Bacillus subtillis. The series can be described thus: standard disc plate assay (12.7 mm assay discs). It is filed as cell-based. The note with it: 1 mg/ml, 12.7 mm discs.
In series [11] the test system is species of Pseudomonas. In words: antibacterial activity. It is filed as cell-based.
Series [12] has as its system P. aeruginosa Strain No. 6434. In words: nutrient broth dilution test. It is filed as cell-based, Pseudomonas aeruginosa. The note with it: strain 6434; 32° C., 18 hours. The protocol: (§1) Antibiotic 354 was also tested on a nutrient broth dilution test against the same Pseudomonas strains listed above. The test tubes were incubated at 32° C. for 18 hours.
For series [13], the system named is P. aeruginosa Strain No. 6431. In words: nutrient broth dilution test. In kind it is cell-based, Pseudomonas aeruginosa. The settings on record: strain 6431; 32° C., 18 hours. As to the method:
as §1
(In general: In broth dilution the organism is exposed to a series of concentrations in liquid medium.)

The subject of series [14] is P. aeruginosa Strain No. 6429. In words: nutrient broth dilution test. It is filed as cell-based, Pseudomonas aeruginosa. The note with it: strain 6429; 32° C., 18 hours. As to the method:
as §1

For series [15], the system named is P. aeruginosa Strain No. 6430. In words: nutrient broth dilution test. In kind it is cell-based, Pseudomonas aeruginosa. The note with it: strain 6430; 32° C., 18 hours. The protocol:
as §1

For series [16], the system named is P. aeruginosa Strain No. 6436. In words: nutrient broth dilution test. In kind it is cell-based, Pseudomonas aeruginosa. The note with it: strain 6436; 32° C., 18 hours. The protocol:
as §1

The subject of series [17] is P. aeruginosa Strain No. 6435. In words: nutrient broth dilution test. In kind it is cell-based, Pseudomonas aeruginosa. The note with it: strain 6435; 32° C., 18 hours. The protocol: as §1
The test system of series [18] is P. aeruginosa Strain No. 6433. In words: nutrient broth dilution test. The settings on record: strain 6433; 32° C., 18 hours. It is filed as cell-based, Pseudomonas aeruginosa. The protocol:
as §1

Series [19] relates to Streptococcus fecalis UC 694. In words: microplate broth dilution assay using nutrient broth. It is filed as cell-based. An excerpt:
(§2) On testing antibiotic 354 by a microplate broth dilution assay using nutrient broth the following spectrum was observed.

For series [20], the system named is Serratia marcescens UC 131. The series is described as above. It is filed as cell-based.
Description: as §2

Series [21] relates to Salmonella schottmuelleri UC 126. The description is as above. It is filed as cell-based.
Description: as §2

Series [22] concerns Proteus mirabilis. The series is described as above. In kind it is cell-based.
Description: as §2

For series [23], the system named is Klebsiella pneumoniae UC 57. The series is described as above. It is filed as cell-based.
Description: as §2

Series [24] relates to Klebsiella pneumoniae UC 58. The series is described as above. In kind it is cell-based.
Description: as §2

For series [25], the system named is Salmonella typhi. Described as above. In kind it is cell-based.
Description: as §2

Series [26] concerns Staphylococcus aureus UC 76. The description is as above. In kind it is cell-based.
Description: as §2

The subject of series [27] is species of Proteus. The series can be described thus: antibacterial activity. In kind it is cell-based.
Series [28] relates to Pseudomonas mildenbergii. In words: standard disc plate assay (12.7 mm assay discs). In kind it is cell-based. The settings on record: 1 mg/ml, 12.7 mm discs.
In series [29] the test system is Gram-negative bacteria. In words: antibacterial activity. In kind it is cell-based.
Series [30] can be described thus: basicity. It is filed as physicochemical.
The test system of series [31] is Pseudomonas mildenbergii (UC 3029). The series can be described thus: agar disc plate assay, biounits. In kind it is cell-based. The settings on record: vs. UC 3029; BU = concentration giving a 20 mm zone of inhibition. As to the method: The assay is an agar disc plate assay using the microorganism P. mildenbergii. The agar medium is buffered with 0.1 M phosphate buffer at a pH of 7.4. A unit volume (0.08 ml) of solution containing the substance to be assayed is placed on a 12.7 mm paper disc which is then placed on an agar plate seeded with the assay organism. The agar plate is then incubated for 16-18 hours at 37° C. A biounit (BU) is defined as the concentration of the antibiotic which gives a 20 mm zone of inhibition under the above assay conditions.

As to Gentamycin, the “Zones of Inhibition” value is “trace” in [1]; 11 mm in series [2]; 14 mm in series [3]; 14 mm in [4]; 9 mm in series [7]; 22 mm in series [8]. Moreover, the “Zones of Inhibition” value in series [9] was determined as 13 mm. Also, in series [5], the “activity / resistance, Bronson Hospital P. aeruginosa strains” value was “relatively resistant”. In [6], the “activity / resistance, P. aeruginosa GN-315” value was “resistant”.

In the case of `NC[C@H]1O[C@H](O[C@H]2[C@H](O)[C@@H](O[C@H]3O[C@H](CO)[C@@H](O)[C@H](N)[C@H]3O)[C@H](N)C[C@@H]2N)[C@H](O)[C@@H](O)[C@@H]1O` [Kanamycin], the zone of inhibition at 1000 µg/mL in series [1] turned out to be 0 mm; in series [3], 11 mm; in series [4], 11 mm; in [7], 0 mm; in series [8], 13 mm; in series [9], 0 mm. In addition, the “Zones of Inhibition” value in series [2] is “trace”. Moreover, the “activity / resistance, Bronson Hospital P. aeruginosa strains” value in [5] was “relatively resistant”. Moreover, in [6], the “activity / resistance, P. aeruginosa GN-315” value is recorded as “resistant”.

In the case of `N=C1C=C[C@@]2(O)C[C@H](Cl)CN12` [Antibiotic 354], the “Zone Of Inhibition” value was 25 mm in [10] and 30 mm in [28]. The “Zones of Inhibition” value stood at 22 mm in [1]; 21 mm in [2]; 22 mm in series [3]; 33 mm in series [4]; 22 mm in [7]; 20 mm in series [8]. The “Zones of Inhibition” value in series [9] turned out to be 24 mm. Also, in series [11], the “activity against species of Pseudomonas” value was “very active”. Further, the “Minimum Inhibitory Concentration” value came out at 12.5 µg/mL in series [12]; 25 µg/mL in series [13]; 25 µg/mL in series [14]; 25 µg/mL in series [15]; 25 µg/mL in series [16]; 12.5 µg/mL in series [17]. In addition, the “Minimum Inhibitory Concentration” value in series [18] amounted to 25 µg/mL; in [19] it was 125 µg/mL; in [20], 3.9 µg/mL; in [21], 7.8 µg/mL; in [22], 31.2 µg/mL; in [23] it was 31.2 µg/mL. Also, the “Minimum Inhibitory Concentration” value worked out at 7.8 µg/mL in [24], 15.6 µg/mL in [25] and 31.2 µg/mL in series [26]. Further, in series [27], the “activity against species of Proteus” value is given as “very active”. Also, in series [5], the “activity / resistance, Bronson Hospital P. aeruginosa strains” value is reported as “active”. Also, the “activity / resistance, P. aeruginosa GN-315” value in series [6] is listed as “active”. For the same molecule, the “activity against Gram-negative bacteria” value in series [29] is on record as “active”. The basicity result in series [30] is listed as “strongly basic”. The potency in biounits in series [31] is reported as 8 BU/mg.

With `CCn1cc(C(=O)O)c(=O)c2ccc(C)nc21` [Nalidixic Acid], the zone of inhibition at 1000 µg/mL in series [1] amounted to 12 mm; in [2] (Pseudomonas aeruginosa, read-out: Zones of Inhibition) it was 13 mm; in [3], 13 mm; in [4] it was 13 mm; in series [7] it was 13 mm; in [8], 13 mm. In addition, the zone of inhibition at 1000 µg/mL in [9] stood at 17 mm. The “activity / resistance, Bronson Hospital P. aeruginosa strains” value in series [5] is on record as “relatively resistant”. In addition, the “activity / resistance, P. aeruginosa GN-315” value in series [6] was “resistant”.

Consider Polymyxin B, for which the “Zones of Inhibition” value in series [1] is given as “trace”; in [2], “trace”; in series [3], “trace”; in series [4] it was “trace”; in [7], 9 mm; in [8], “trace”. The “Zones of Inhibition” value in series [9] is on record as “trace”. Moreover, in series [5], the “activity / resistance, Bronson Hospital P. aeruginosa strains” value was “relatively resistant”.
